Tests used:
c-Src SH2 domain = c-Src SH2 domain (Homo sapiens, UniProt P12931); assay: pTyr-Var library SH2 domain screen with SH2-dynabeads (enrichment scores)
c-Abl kinase domain [1] = target: T1, c-Abl kinase domain (Mus musculus, UniProt P00520); assay: pTyr-Var library bacterial peptide display kinase screen (enrichment scores); format: biochemical;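 as to screen: log2 fold change in enrichment of variant over reference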
T1 sequence (P00520 242-493 limits assumed): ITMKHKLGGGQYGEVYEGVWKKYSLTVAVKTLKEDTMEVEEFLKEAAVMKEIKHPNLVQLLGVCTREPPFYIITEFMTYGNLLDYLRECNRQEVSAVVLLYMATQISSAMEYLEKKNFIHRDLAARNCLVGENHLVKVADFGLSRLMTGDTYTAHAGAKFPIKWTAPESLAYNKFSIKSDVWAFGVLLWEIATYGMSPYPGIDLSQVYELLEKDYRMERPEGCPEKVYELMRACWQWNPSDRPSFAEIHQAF

MERTK kinase domain = assay: as above; format: biochemical, human
EPHB1 kinase domain = assay: as above; format: biochemical, human; details: for Screen (variant relative to reference peptide, measured in the pTyr-Var library screen): sheet "EPHB1", variant seq vs reference seq, bacterial peptide display enrichment; for Screen: sheet EPHB1, effect of the variant peptide relative to its reference peptide in the pTyr-Var library screen (enrichment scores)
Jak2 = assay: as above; format: biochemical, human
c-Src kinase domain = c-Src kinase domain (Homo sapiens, UniProt P12931); assay: as above; format: biochemical; details: for Screen: sheet "Src";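 as to screen: log2 fold change in enrichment of variant over reference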
EPHB2 kinase domain [2] = assay: as above; format: biochemical, human; details: for Screen: sheet EPHB2
Fes = assay: as above; format: biochemical; details: mean of log2 of enrichment over R1-R6
[3] = tested on: 4G10 Platinum pan-phosphotyrosine antibody; assay: Phosphorylated pTyr-Var library selection with biotinylated pan-phosphotyrosine antibody; format: binding, mouse; details: enrichment score, sheet SH2-vs-peptide
Procedure: After the desired time of library phosphorylation, kinase activity was quenched with 25 mM EDTA and the cells were washed with PBS containing 0.2% BSA. Kinase-treated cells were then labeled with a 1:1000 dilution of biotinylated 4G10 Platinum anti-phosphotyrosine antibody (Millipore) for an hour on ice and washed with PBS containing 0.1% BSA and 2 mM EDTA (isolation buffer). The cells were finally resuspended in PBS containing 0.1% BSA. The phosphorylated, antibody-labeled cells were then mixed with magnetic beads from Dynabeads FlowComp Flexi kit (Invitrogen), at a ratio of 37.5 μL of washed beads per 50 μL of cell suspension, diluted into 450 μL of isolation buffer. The suspension was rotated at 4 °C for 30 minutes, then 375 μL of isolation buffer was added and the beads were separated from the bulk solution on a magnetic rack. The beads were washed once with 1 mL of isolation buffer, and then the supertantant were removed by aspiration. […] The bead/lysate mixture was centrifuged to pellet the beads and the mixture was stored at -20 °C.

AncSZ kinase domain = assay: pTyr-Var library bacterial peptide display kinase screen (enrichment scores); format: biochemical
Hck kinase domain = assay: as above; format: biochemical, human
Fer kinase domain = assay: as above; format: biochemical, mouse; details: for Screen: sheet "Fer"
SHP2 C-SH2 domain = assay: pTyr-Var library SH2 domain screen with SH2-dynabeads (enrichment scores)
Fyn kinase domain = assay: pTyr-Var library bacterial peptide display kinase screen (enrichment scores); format: biochemical, human
FGFR1 kinase domain = assay: as above; format: biochemical, human
Grb2 SH2 domain = assay: pTyr-Var library SH2 domain screen with SH2-dynabeads (enrichment scores)
FGFR3 kinase domain = assay: pTyr-Var library bacterial peptide display kinase screen (enrichment scores); format: biochemical, human
c-Abl kinase domain [4] = target: T1, c-Abl kinase domain; assay: ADP-Quest continuous fluorimetric kinase assay (Michaelis-Menten parameters and initial rates); format: biochemical; details: peptide 100 μM, kinase 10–50 nM; Figure 2C
From the text: (§1) A fluorescence-based assay from Eurofins (ADP Quest) was used to measure the Michaelis-Menten kinetic parameters for phosphorylation of the consensus peptides by purified tyrosine kinase domains. In this assay, ADP production as a result of kinase activity is coupled to the production of resorufin, a fluorophore that emits signal at 590 nm. For all experiments, the assay reactions were set up as described in the provided assay kit protocol, in a 384 well plate format. The peptide solutions were serially diluted in 100 mM Tris, pH 8.0, and the kinases were diluted to 50 nM in buffer (10 mM HEPES, 100 mM NaCl, 1 mM TCEP, 5 mM MgCl2, 10% (v/v) glycerol). The final reaction mixtures contained 10 nM of kinase with 100 μM of ATP. […] Phosphorylation reaction progress was monitored by measuring fluorescence at excitation 530 nm and emission 590 nm every 2 min at 37 °C on a plate reader (BioTek Synergy Neo 2). The fluorescence units (RFU) were converted to μM ADP by comparison to a standard curve, and the initial rates were extracted from the linear regime of the reaction progress curves. Initial rates were also measured for samples containing each kinase but lacking a peptide substrate, to account for background ATP hydrolysis. This background rate was subtracted from the rates measured in the presence of peptide. […]

EPHB2 kinase domain [5] = assay: ADP-Quest continuous fluorimetric kinase assay (initial rates of consensus peptides); format: biochemical, human; details: peptide 100 μM, kinase 10–50 nM; Figure 2C
From the text: as §1

[6] = mean of log2 of enrichment over R1-R4
[7] = pTyr-Var library, enrichment score, replicate 1
[8] = pTyr-Var library, enrichment score, replicate 3
[9] = pTyr-Var library, enrichment score, replicate 4
[10] = mean of log2 enrichment of reference peptide, n = 4
[11] = pTyr-Var library, reference peptide enrichment, mean of n = 4
[12] = mean of log2 enrichment of reference peptide, n = 5
[13] = pTyr-Var library, reference peptide enrichment, mean of n = 5
[14] = variant peptide versus its reference peptide in the pTyr-Var library screen
[15] = effect of the variant relative to its reference peptide in the pTyr-Var library screen
[16] = variant peptide relative to its reference peptide, pTyr-Var library screen enrichment
[17] = effect of the variant peptide relative to its reference peptide in the pTyr-Var library screen
[18] = effect of variant peptide relative to its reference peptide in the pTyr-Var library screen (enrichment scores)
[19] = value of the variant peptide against its reference peptide in the pTyr-Var library screen with Fer

ATVLNYLPKCI [A2M_Y817]
c-Src (mean) (c-Src SH2 domain; enrichment score, phosphorylated pTyr-Var library, sheet SH2-vs-peptide, mean): 0.535
mean of log2(reference) (c-Src SH2 domain; mean of log2 enrichment of reference peptide, R1-R3, sheet c-Src): -0.9781
ref. mean (c-Src SH2 domain; reference peptide, mean of R1-R3, sheet c-Src): 0.535
c-Abl mean of log2(enrichment) (c-Abl kinase domain [1]; [6]): -0.5355
c-Abl enrich. R1 (c-Abl kinase domain [1]; [7]): 0.4542
c-Abl enrich. R3 (c-Abl kinase domain [1]; [8]): 0.6528
c-Abl enrich. R4 (c-Abl kinase domain [1]; [9]): 0.8371
mean of log2(reference) (MERTK kinase domain; [10]): -1.427
ref. mean (MERTK kinase domain; [11]): 0.3924
mean of log2(reference) (EPHB1 kinase domain; [10]): -0.6057
ref. mean (EPHB1 kinase domain; [11]): 0.6623
Jak2 mean of log2(enrichment) (Jak2; mean of log2 of enrichment over R1-R3): -0.2312
Jak2 enrich. R1 (Jak2; [7]): 0.7671
Jak2 enrich. R3 (Jak2; [8]): 0.8013
c-Src mean of log2(enrichment) (c-Src kinase domain; [6]): -1.394
c-Src enrich. R1 (c-Src kinase domain; [7]): 0.4801
c-Src enrich. R3 (c-Src kinase domain; [8]): 0.3246
c-Src enrich. R4 (c-Src kinase domain; [9]): 0.3798
mean of log2(reference) (EPHB2 kinase domain [2]; [10]): -0.8971
ref. mean (EPHB2 kinase domain [2]; [11]): 0.5418
Fes mean of log2(enrichment) (Fes): -0.04028
4G10 (mean) [3]: 0.6373
AncSZ mean of log2(enrichment) (AncSZ kinase domain; mean of log2 of enrichment over R1-R5): -0.4662
AncSZ enrich. R1 (AncSZ kinase domain; [7]): 0.5771
AncSZ enrich. R3 (AncSZ kinase domain; [8]): 0.5974
AncSZ enrich. R4 (AncSZ kinase domain; [9]): 1.037
AncSZ enrich. R5 (AncSZ kinase domain; pTyr-Var library, enrichment score, replicate 5): 0.9242
Hck mean of log2(enrichment) (Hck kinase domain; mean of log2(variant) / mean of log2(reference), R1-R4): 0.599
Hck enrich. R1 (Hck kinase domain; [7]): 0.4967
Hck enrich. R3 (Hck kinase domain; [8]): 0.9831
Hck enrich. R4 (Hck kinase domain; [9]): 0.3063
Fer mean of log2(enrichment) (Fer kinase domain; [6]): -1.275
Fer enrich. R1 (Fer kinase domain; [7]): 0.6179
Fer enrich. R3 (Fer kinase domain; [8]): 0.5252
Fer enrich. R4 (Fer kinase domain; [9]): 0.2478
mean of log2(reference) (SHP2 C-SH2 domain; SHP2-C SH2, mean of log2 enrichment of reference, R1-R3): -0.4562
ref. mean (SHP2 C-SH2 domain; reference peptide enrichment score, SHP2-C SH2, mean of R1-R3): 0.736
Fyn mean of log2(enrichment) (Fyn kinase domain; [6]): -1.219
Fyn enrich. R1 (Fyn kinase domain; [7]): 0.5501
Fyn enrich. R3 (Fyn kinase domain; [8]): 0.3301
Fyn enrich. R4 (Fyn kinase domain; [9]): 0.4584
mean of log2(reference) (FGFR1 kinase domain; [12]): -0.9981
ref. mean (FGFR1 kinase domain; [13]): 0.5192
mean of log2(reference) (Grb2 SH2 domain; Grb2 SH2, mean of log2 enrichment of reference, R1-R3): -0.1568
ref. mean (Grb2 SH2 domain; reference peptide enrichment score, Grb2 SH2, mean of R1-R3): 0.8993
mean of log2(reference) (FGFR3 kinase domain; [12]): -0.6609
ref. mean (FGFR3 kinase domain; [13]): 0.649

Ac-GPPEPIYEVPPPKKKG-NH2 [EPHB2 Consensus, EPHB2 consensus substrate peptide from X5-Y-X5 screen]
phosphorylation of consensus peptide by c-Abl (initial rate relative to cognate consensus) (c-Abl kinase domain [4]): efficiently phosphorylated
phosphorylation of consensus peptide by EPHB2 (initial rate relative to cognate consensus) (EPHB2 kinase domain [5]): efficiently phosphorylated

DNEAIYDICRC [TUBA4A_Y210_R215C]
Screen (c-Abl kinase domain [1]; sheet "Abl", effect of variant peptide relative to its reference peptide in pTyr-Var library screen (enrichment)): -0.2438
Screen (variant relative to reference peptide, measured in the pTyr-Var library screen) (EPHB1 kinase domain): -1.159
Screen (c-Src kinase domain; [14]): 0.192
Screen (EPHB2 kinase domain [2]; [15]): -0.1529
Screen (Fer kinase domain; [16]): -0.3932

LENSTYQFICV [CRB1_Y760_R764C_YF]
Screen (c-Abl kinase domain [1]; fig5-data2, sheet "Abl", Screen for the variant/reference peptide pair, pTyr-Var library): 0.05369
Screen (EPHB1 kinase domain): -0.5365
Screen (c-Src kinase domain; [17]): -1.066
Screen (EPHB2 kinase domain [2]; [18]): 0.2665
Screen (Fer kinase domain; [19]): -1.109

LRWREYQRQDF [PRKRIP1_Y90_R87W_YF]
Screen (EPHB1 kinase domain): 1.398
Screen (c-Src kinase domain; [14]): 1.62
Screen (EPHB2 kinase domain [2]; [18]): 1.877
Screen (Fer kinase domain; [19]): 1.318

MSRNLYSGDCF [DDR2_Y736_Y740C_YF]
Screen (EPHB1 kinase domain): -1.85
Screen (c-Src kinase domain; [17]): -1.107
Screen (EPHB2 kinase domain [2]; [18]): -2.168
Screen (Fer kinase domain; [19]): -0.7796

NIEPIYLNMLL [ATR_Y317_V316I]
Screen (EPHB1 kinase domain): 0.9992
Screen (c-Src kinase domain; [17]): 0.03812
Screen (EPHB2 kinase domain [2]; [18]): 1.556
Screen (Fer kinase domain; [19]): 0.3194

NREGVYRVFAP [TGFBI_Y537_T538R]
Screen (variant relative to reference peptide, measured in the pTyr-Var library screen) (EPHB1 kinase domain): -2.691
Screen (c-Src kinase domain; [14]): -0.9266
Screen (EPHB2 kinase domain [2]; [15]): -2.433
Screen (Fer kinase domain; [16]): -4.485

RAILLYEFVGK [NATD1_Y45_V42I_YF]
Screen (EPHB1 kinase domain): 1.082
Screen (c-Src kinase domain; [14]): 1.103
Screen (EPHB2 kinase domain [2]; [18]): 1.274
Screen (Fer kinase domain; [19]): 1.125

RGDCMYASLLG [AR_Y269_P271S]
Screen (EPHB1 kinase domain): -1.7
Screen (c-Src kinase domain; [17]): 0.07196
Screen (EPHB2 kinase domain [2]; [18]): -2.657
Screen (Fer kinase domain; [19]): -2.075

RKVLVYDKLNV [ROR2_Y624_N620K]
Screen (EPHB1 kinase domain): -0.6022
Screen (c-Src kinase domain; [14]): -1.144
Screen (EPHB2 kinase domain [2]; [18]): -1.435
Screen (Fer kinase domain; [16]): -1.726

SPPILYSFFLN [FCRL6_Y239_D244N_YF]
Screen (EPHB1 kinase domain): 0.08597
Screen (c-Src kinase domain; [17]): 0.0865
Screen (EPHB2 kinase domain [2]; [18]): 0.2765
Screen (Fer kinase domain; [19]): 1.473
